From patent WO2005094256A2, “Polypeptides toxic to nematodes, and methods of use” (Individual, priority 2004, dated 2005)
Counter-ions that a name gives are not always drawn. *1 amine or outer side, *2 acyl side, *3 side chain or, on linkers, in order; H or OH if unused. Where a SMILES comes first, the peptide text is derived from it. [ ]: non-standard residue; d: D form. The star is where a group is joined. Sta = CC(C)C[C@H](N)[C@@H](O)CC(=O)O; Isovaleryl = CC(C)CC(=O)*; CO = O=C([*:1])[*:2]

System: serratia metalloprotease SMP #1 from Serratia marcescens NRRL B-23112, SEQ ID NO:2
Experiment: Inhibition of protease activity of SMP #1: residual proteolytic (casein digestion) activity after addition of inhibitor, 25°C, 30 minutes
Assay type: biochemical

## CC(C)C[C@H](NP(=O)(O)O[C@@H]1O[C@@H](C)[C@H](O)[C@@H](O)[C@H]1O)C(=O)N[C@@H](Cc1c[nH]c2ccccc12)C(=O)O [phosphoramidon]
660μg/ml
  inhibition of SMP #1: not inhibited

## CC(C)[C@H](NC(=O)[C@H](CCCNC(=N)N)NC(=O)N[C@@H](Cc1ccccc1)C(=O)O)C(=O)N[C@H](C=O)CCCNC(=N)N [antipain dihydrochloride] ({Phe-CO}-Arg-Val-Arg-aldehyde)
120μg/ml
  inhibition of SMP #1: not inhibited

## CC(C)C[C@H](NC(=O)[C@@H](O)[C@H](N)Cc1ccccc1)C(=O)O [bestatin]
80μg/ml
  inhibition of SMP #1: not inhibited

## O=S(=O)(F)Cc1ccccc1 [phenylmethylsulfonyl fluoride]
400μg/ml
  inhibition of SMP #1: not inhibited

## CC(C)CC(=O)N[C@H](C(=O)N[C@H](C(=O)N[C@@H](CC(C)C)[C@@H](O)CC(=O)N[C@@H](C)C(=O)N[C@@H](CC(C)C)[C@@H](O)CC(=O)O)C(C)C)C(C)C [pepstatin] (Isovaleryl-VV[Sta]A[Sta]-OH)
4μg/ml
  inhibition of SMP #1: not inhibited

## Cl.NCCc1ccc(S(=O)(=O)F)cc1 [Pefabloc SC]
2000μg/ml
  inhibition of SMP #1: not inhibited

## CC(=O)N[C@@H](CC(C)C)C(=O)N[C@@H](CC(C)C)C(=O)N[C@H](C=O)CCCNC(=N)N [leupeptin]
4μg/ml
  inhibition of SMP #1: not inhibited

## CC(C)C[C@H](NC(=O)[C@H]1O[C@@H]1C(=O)O)C(=O)NCCCCNC(=N)N [E-64]
20μg/ml
  inhibition of SMP #1: not inhibited

## O=C(O)CN(CCN(CC(=O)O)CC(=O)O)CC(=O)O [EDTA]
9μg/ml
  inhibition of SMP #1: inhibited

## OCCS [2-mercaptoethanol]
0.5% v/v
  activity of SMP #1 retained in the presence of 2-mercaptoethanol: retains full activity

## CC(C)C[C@H](NC(=O)[C@@H](NC(=O)N[C@@H](Cc1ccccc1)C(=O)O)[C@@H]1CCN=C(N)N1)C(=O)N[C@H](C=O)Cc1ccccc1 [chymostatin]
50μg/ml
  inhibition of SMP #1: not inhibited
